Active and inactive are the calls of the source. The rule behind the calls is not given here.
Tests used:
[1] = system: Mus musculus; test: Downregulation of CDC20 expression in mouse liver at 40 mg/kg measured after 30 days by immunohistochemical staining analysis; format: functional, organism-based; details: time 30.0 day
[2] = system: SK-HEP1; test: Antiproliferative activity against human SK-HEP1 cells assessed as increase in miR-10a-5p level at 20 uM by qRT-PCR analysis; format: functional, cell-based
[3] = system: SK-HEP1; test: Antiproliferative activity against human SK-HEP1 cells assessed as increase in miR-106b-5p level at 20 uM by qRT-PCR analysis; format: functional, cell-based
[4] = system: SK-HEP1; test: Induction of cell cycle arrest in human SK-HEP1 cells assessed as G2 phase accumulation at 20 uM incubated for 24 hrs by propidium iodide staining based flow cytometry analysis (reference value: 24.12%); format: functional
[5] = Antiproliferative activity against human QSG7701 cells incubated for 24 hrs by alamar blue assay; format: functional, cell-based; details: QSG7701, 24 h
[6] = system: SK-HEP1; test: Antiproliferative activity against human SK-HEP1 cells assessed as increase in miR-26a-5p level at 20 uM by qRT-PCR analysis; format: functional, cell-based
[7] = system: MHCC97; test: Antitumor activity in human MHCC97 cells xenografted in SCID mouse assessed as reduction in infiltration of inflammatory cells in left outer lobe of liver at 40 mg/kg, ip administered once every 3 days measured after 30 days by H and E staining based immunohistochemical analysis; format: functional, organism-based; details: time 30.0 day
[8] = system: MHCC97; test: Antitumor activity in human MHCC97 cells xenografted in SCID mouse assessed as reduction in infiltration of inflammatory cells in left middle lobe of liver at 40 mg/kg, ip measured after 30 days by H and E staining based immunohistochemical analysis; format: functional, organism-based; details: time 30.0 day
[9] = system: SK-HEP1; test: Antiproliferative activity against human SK-HEP1 cells assessed as decrease in miR135a-5p level at 20 uM by qRT-PCR analysis; format: functional, cell-based
[10] = system: HepG2; test: Antiproliferative activity against human HepG2 cells incubated for 24 hrs by alamar blue assay; details: HepG2, 24 h
[11] = system: HCT-116; test: Antiproliferative activity against human HCT-116 cells at 25 uM incubated for 24 hrs by alamar blue assay; format: functional, cell-based
[12] = system: SK-HEP1; test: Antiproliferative activity against human SK-HEP1 cells assessed as increase in miR-222-5p level at 20 uM by qRT-PCR analysis; format: functional, cell-based
[13] = target: T1, Signal transducer and activator of transcription 1-alpha/beta (Homo sapiens) (UniProt P42224); test: Inhibition of STAT1 phosphorylation in human SK-HEP1 cells at 30 uM by Western blot analysis; format: cell-based
T1 sequence (whole entry): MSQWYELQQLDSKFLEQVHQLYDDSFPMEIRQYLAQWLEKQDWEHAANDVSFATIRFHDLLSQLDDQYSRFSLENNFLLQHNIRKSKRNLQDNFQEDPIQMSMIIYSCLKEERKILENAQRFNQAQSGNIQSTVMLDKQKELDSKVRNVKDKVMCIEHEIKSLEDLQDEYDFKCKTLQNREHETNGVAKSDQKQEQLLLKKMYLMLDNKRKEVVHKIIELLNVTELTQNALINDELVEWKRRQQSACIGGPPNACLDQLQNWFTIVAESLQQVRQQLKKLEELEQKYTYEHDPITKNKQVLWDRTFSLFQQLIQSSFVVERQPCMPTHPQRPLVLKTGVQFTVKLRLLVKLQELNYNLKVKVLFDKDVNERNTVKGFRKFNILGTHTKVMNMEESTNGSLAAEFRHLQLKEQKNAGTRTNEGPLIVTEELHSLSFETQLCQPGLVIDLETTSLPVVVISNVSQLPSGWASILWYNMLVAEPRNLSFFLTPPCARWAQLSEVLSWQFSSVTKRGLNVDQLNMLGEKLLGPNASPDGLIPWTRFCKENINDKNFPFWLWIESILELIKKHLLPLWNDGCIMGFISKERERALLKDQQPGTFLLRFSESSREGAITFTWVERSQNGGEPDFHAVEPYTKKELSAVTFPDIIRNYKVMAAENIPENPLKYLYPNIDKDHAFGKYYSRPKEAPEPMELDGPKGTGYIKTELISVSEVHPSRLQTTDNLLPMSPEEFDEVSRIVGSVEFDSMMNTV

[14] = system: HCT-116; test: Inhibition of colony formation in human HCT-116 cells at 30 uM incubated for 14 days by crystal violet staining based assay; format: functional, cell-based; details: time 14.0 day
[15] = system: Mus musculus; test: Downregulation of UBE2S expression in mouse liver at 40 mg/kg measured after 30 days by immunohistochemical staining analysis; format: functional, organism-based; details: time 30.0 day
[16] = system: SK-HEP1; test: Effect on human SK-HEP1 cells assessed as decrease in miR-10b-5p level at 10 to 50 uM by qRT-PCR analysis; format: functional, cell-based; details: dose 10-50 µM
[17] = system: SK-HEP1; test: Effect on Dicer protein expression in human SK-HEP1 cells at 30 uM after 24 hrs by immunoblot analysis; format: functional, cell-based
[18] = system: SK-HEP1; test: Effect on AGO2 protein expression in human SK-HEP1 cells at 30 uM after 24 hrs by immunoblot analysis; format: functional, cell-based
[19] = system: MDA-MB-231; test: Antiproliferative activity against human MDA-MB-231 cells incubated for 24 hrs by alamar blue assay; details: MDA-MB-231, 24 h
[20] = target: Serine/threonine-protein kinase AKT (Homo sapiens) (UniProt P31751+Q9Y243+P31749); test: Inhibition of AKT phosphorylation in human SK-HEP1 cells at 30 uM by Western blot analysis; format: cell-based
[21] = system: MHCC97; test: Inhibition of colony formation in human MHCC97H cells at 30 uM incubated for 14 days by crystal violet staining based assay; format: functional, cell-based; details: time 14.0 day
[22] = target: Transcription factor p65 (Homo sapiens) (UniProt Q04206); test: Inhibition of p65 phosphorylation in human SK-HEP1 cells at 30 uM by Western blot analysis; format: cell-based
[23] = system: HCT-116; test: Antiproliferative activity against human HCT-116 cells incubated for 24 hrs by alamar blue assay; details: HCT-116, 24 h
[24] = system: SK-HEP1; test: Inhibition of cell migration in human SK-HEP1 cells knockdown TRBP at 20 uM measured after 12 hrs using crystal violet staining inverted microscope based transwell assay; format: functional
[25] = system: Mus musculus; test: Downregulation of KIF14 expression in mouse liver at 40 mg/kg measured after 30 days by immunohistochemical staining analysis; format: functional, organism-based; details: time 30.0 day
[26] = system: SK-HEP1; test: Effect on human SK-HEP1 cells assessed as decrease in miR-224-5p level at 10 to 50 uM by qRT-PCR analysis; format: functional, cell-based; details: dose 10-50 µM
[27] = system: HeLa; test: Antiproliferative activity against human HeLa cells assessed as increase in miR-21 biogenesis level measured after 24 hrs by luciferase assay; format: functional, cell-based
[28] = system: SK-HEP1; test: Antiproliferative activity against human SK-HEP1 cells assessed as increase in miR-214-5p level at 20 uM by qRT-PCR analysis; format: functional, cell-based
[29] = system: SK-HEP1; test: Induction of cell cycle arrest in human SK-HEP1 cells assessed as G1 phase accumulation at 20 uM incubated for 24 hrs by propidium iodide staining based flow cytometry analysis (reference value: 48.61%); format: functional
[30] = system: MHCC97; test: Inhibition of cell migration in human MHCC97H cells at 30 uM incubated for 12 hrs by crystal violet staining based transwell assay; format: functional
[31] = system: MHCC97; test: Antimetastatic activity against human MHCC97 cells xenografted in SCID mouse assessed as decrease in liver metastasis at 20 mg/kg, ip administered once every 3 days and measured after 10 days; format: functional, organism-based; details: time 10.0 day

Chain of Serine/threonine-protein kinase AKT (Homo sapiens) (P31749 whole entry, looked up): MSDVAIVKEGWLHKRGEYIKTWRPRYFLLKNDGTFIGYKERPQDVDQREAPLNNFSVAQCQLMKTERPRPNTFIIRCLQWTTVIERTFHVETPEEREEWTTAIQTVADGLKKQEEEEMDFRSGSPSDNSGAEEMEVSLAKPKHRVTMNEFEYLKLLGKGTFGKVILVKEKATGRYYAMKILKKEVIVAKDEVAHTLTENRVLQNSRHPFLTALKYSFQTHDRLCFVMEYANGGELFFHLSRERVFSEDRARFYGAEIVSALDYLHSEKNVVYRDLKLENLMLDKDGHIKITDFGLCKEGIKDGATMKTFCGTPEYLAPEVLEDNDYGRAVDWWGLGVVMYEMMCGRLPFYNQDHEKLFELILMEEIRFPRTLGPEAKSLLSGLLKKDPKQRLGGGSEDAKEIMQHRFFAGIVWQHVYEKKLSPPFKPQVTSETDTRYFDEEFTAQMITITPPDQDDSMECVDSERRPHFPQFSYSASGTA
Chain of Serine/threonine-protein kinase AKT (Homo sapiens) (P31751 whole entry, looked up): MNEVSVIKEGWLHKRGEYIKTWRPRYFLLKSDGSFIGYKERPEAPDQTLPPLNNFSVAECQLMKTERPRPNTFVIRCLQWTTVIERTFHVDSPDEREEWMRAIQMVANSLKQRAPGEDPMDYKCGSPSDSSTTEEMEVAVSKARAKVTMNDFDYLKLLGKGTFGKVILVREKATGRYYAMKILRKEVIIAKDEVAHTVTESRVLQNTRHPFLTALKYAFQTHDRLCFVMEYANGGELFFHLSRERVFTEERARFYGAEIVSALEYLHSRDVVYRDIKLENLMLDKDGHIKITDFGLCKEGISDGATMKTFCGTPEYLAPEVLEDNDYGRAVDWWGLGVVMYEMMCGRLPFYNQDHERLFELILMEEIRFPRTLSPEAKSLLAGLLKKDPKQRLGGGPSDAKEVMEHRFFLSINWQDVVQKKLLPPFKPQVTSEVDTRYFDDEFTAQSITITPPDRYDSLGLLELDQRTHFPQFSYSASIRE
Chain of Serine/threonine-protein kinase AKT (Homo sapiens) (Q9Y243 whole entry, looked up): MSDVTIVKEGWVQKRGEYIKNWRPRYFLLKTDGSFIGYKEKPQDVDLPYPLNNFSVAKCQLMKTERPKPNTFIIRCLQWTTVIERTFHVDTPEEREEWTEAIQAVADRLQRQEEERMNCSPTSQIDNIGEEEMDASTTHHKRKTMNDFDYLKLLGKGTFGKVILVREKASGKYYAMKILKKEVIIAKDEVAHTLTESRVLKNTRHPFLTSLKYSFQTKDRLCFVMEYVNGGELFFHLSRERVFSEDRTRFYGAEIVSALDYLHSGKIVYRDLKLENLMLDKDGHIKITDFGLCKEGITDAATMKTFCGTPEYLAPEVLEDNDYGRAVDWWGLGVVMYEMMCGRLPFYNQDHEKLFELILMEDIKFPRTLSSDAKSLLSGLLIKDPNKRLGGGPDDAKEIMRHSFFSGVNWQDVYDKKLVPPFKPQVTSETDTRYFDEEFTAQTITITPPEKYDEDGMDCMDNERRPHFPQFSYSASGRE
Chain of Transcription factor p65 (Homo sapiens) (Q04206 whole entry): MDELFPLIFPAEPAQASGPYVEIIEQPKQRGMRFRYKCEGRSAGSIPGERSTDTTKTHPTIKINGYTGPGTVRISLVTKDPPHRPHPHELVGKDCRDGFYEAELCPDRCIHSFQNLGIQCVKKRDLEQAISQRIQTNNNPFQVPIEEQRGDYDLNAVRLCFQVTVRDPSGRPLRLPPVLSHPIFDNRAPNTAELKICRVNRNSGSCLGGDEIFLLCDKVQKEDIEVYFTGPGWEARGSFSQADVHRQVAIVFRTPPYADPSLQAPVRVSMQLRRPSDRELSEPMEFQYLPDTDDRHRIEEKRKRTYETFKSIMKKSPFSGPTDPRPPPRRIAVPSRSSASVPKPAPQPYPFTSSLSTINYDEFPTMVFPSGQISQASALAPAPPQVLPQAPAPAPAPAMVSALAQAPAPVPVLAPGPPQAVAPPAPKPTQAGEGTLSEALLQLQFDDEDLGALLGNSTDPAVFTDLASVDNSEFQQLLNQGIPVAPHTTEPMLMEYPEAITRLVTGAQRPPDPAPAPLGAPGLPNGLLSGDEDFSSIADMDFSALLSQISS

## COc1cc2c(c(O)c1OC)-c1c(cc3c(c1OC)OCO3)C[C@H](C)[C@H](C)C2
[1]
  Activity: Active
[2]
  Activity: inactive
[3]
  Activity: Active
[4]
  Activity: 19.68%
[5]
  IC50: 53 µM
[6]
  Activity: Active
[7]
  Activity: Active
[8]
  Activity: Active
[9]
  Activity: inactive
[10]
  IC50: 27.3 µM
[11]
  Activity: inactive
[12]
  Activity: inactive
[13]
  inhibition: inactive
[14]
  inhibition: Active
[15]
  Activity: Active
[16]
  Activity: Active
[17]
  Activity: inactive
[18]
  Activity: inactive
[19]
  IC50: 56.6 µM
[20]
  inhibition: Active
[21]
  inhibition: Active
[22]
  inhibition: Active
[23]
  IC50: 55.4 µM
[24]
  inhibition: inactive
[25]
  Activity: Active
[26]
  Activity: Active
[27]
  IC50: 17.2 µM
[28]
  Activity: Active
[29]
  Activity: 57.4%
[30]
  inhibition: Active
[31]
  Activity: inactive
